The values below come from ChEMBL document CHEMBL4732050, “1,2,4-Oxadiazole topsentin analogs as staphylococcal biofilm inhibitors targeting the bacterial transpeptidase sortase A” (Eur J Med Chem, 2021).

Molecules are shown by their SMILES.

Data set [1] deals with Escherichia coli. The data set is described as follows: Antibiofilm activity against Escherichia coli ATCC 25922 at 100 ug/ml after 24 hrs by crystal violet staining based assay. In kind it is functional.
For data set [2], the system named is Staphylococcus aureus. The data set is described as follows: Antibacterial activity against Staphylococcus aureus ATCC 6538 after 24 hrs by microdilution method. Format: functional.
The test system of data set [3] is Pseudomonas aeruginosa. Put plainly: Antibacterial activity against Pseudomonas aeruginosa ATCC 15442 after 24 hrs by microdilution method. In kind it is functional. A general note: In broth dilution the organism is exposed to a series of concentrations in liquid medium.
The test system of data set [4] is Staphylococcus aureus. The data set is described as follows: Antibiofilm activity against Staphylococcus aureus ATCC 6538 at 100 ug/ml after 24 hrs by crystal violet staining based assay. In kind it is functional.
For data set [5], the system named is Staphylococcus aureus. The data set is described as follows: Antibiofilm activity against Staphylococcus aureus ATCC 25923 after 24 hrs by crystal violet staining based assay. In kind it is functional.
The next data set deals with HS27. Put plainly: Cytotoxicity against human Hs27 cells assessed as cell viability at 0.1 to 1 uM after 72 hrs by SRB assay. In kind it is cell-based. The following applies: hs27, 72 h, dose 0.1-1 µM.
The test system of data set [6] is Pseudomonas aeruginosa. The data set is described as follows: Antibiofilm activity against Pseudomonas aeruginosa ATCC 15442 after 24 hrs by crystal violet staining based assay. Format: functional.
Data set [7] relates to Staphylococcus aureus. The data set is described as follows: Antibacterial activity against Staphylococcus aureus ATCC 25923 after 24 hrs by microdilution method. Format: functional.
In data set [8] the test system is Escherichia coli. The data set is described as follows: Antibacterial activity against Escherichia coli ATCC 25922 after 24 hrs by microdilution method. In kind it is functional.
Data set [9] is described as follows: Inhibition of Staphylococcus aureus ATCC 25923 sortase A by FRET assay.
For data set [10], the system named is Escherichia coli. The data set is described as follows: Antibiofilm activity against Escherichia coli ATCC 25922 after 24 hrs by crystal violet staining based assay. In kind it is functional.
The subject of data set [11] is Staphylococcus aureus. The data set is described as follows: Antibiofilm activity against Staphylococcus aureus ATCC 25923 at 100 ug/ml after 24 hrs by crystal violet staining based assay. In kind it is functional.
Data set [12] concerns Staphylococcus aureus. The data set is described as follows: Antibiofilm activity against Staphylococcus aureus ATCC 6538 after 24 hrs by crystal violet staining based assay. In kind it is functional.
Data set [13] concerns Pseudomonas aeruginosa. Put plainly: Antibiofilm activity against Pseudomonas aeruginosa ATCC 15442 at 100 ug/ml after 24 hrs by crystal violet staining based assay. Format: functional.

Usually inhibition stands for the change of the read-out against control, counted positive when it falls. A high value points to strong suppression. The term MIC denotes the lowest concentration that inhibits growth of the organism. Usually IC50 stands for the concentration at which inhibition is half-maximal. Take `Cn1cc(C(=O)c2nc(-c3cn(C)c4ccc(F)cc34)no2)c2cc(F)ccc21`: the inhibition at 100 µg/mL in the data set on Escherichia coli [1] and in the data set on Staphylococcus aureus [4] was under 15% each time. In addition, the MIC with Staphylococcus aureus [2], in the data set with Pseudomonas aeruginosa [3], in the data set on Staphylococcus aureus [7] and against Escherichia coli [8] was over 100 µg/mL each time. In addition, the MBIC50 with Staphylococcus aureus [5] turned out to be 0.7 µM; in the data set on Pseudomonas aeruginosa [6], 49.7 µM. The Activity entry with HS27 is given as “Non-Toxic”. Also, the IC50 in [9] came out at 10400 nM.

Consider `Cn1cc(C(=O)c2nc(-c3cn(C)c4ccc(Cl)cc34)no2)c2cc(Br)ccc21`, for which the inhibition at 100 µg/mL with Escherichia coli [1] and in the data set on Staphylococcus aureus [4] was under 15% in each case. Further, the MIC against Staphylococcus aureus [2], against Pseudomonas aeruginosa [3], with Staphylococcus aureus [7] and in the data set on Escherichia coli [8] was over 100 µg/mL throughout. Besides, the MBIC50 in the data set on Staphylococcus aureus [5] worked out at 27.7 µM; in the data set with Pseudomonas aeruginosa [6], 53.9 µM.

For `COc1ccc2c(c1)c(-c1noc(C(=O)c3cn(C)c4ccc(Br)cc34)n1)cn2C`, the inhibition at 100 µg/mL in the data set on Escherichia coli [1] and in the data set with Staphylococcus aureus [4] was under 15% in each case. The MIC in the data set on Staphylococcus aureus [2], in the data set on Pseudomonas aeruginosa [3], against Staphylococcus aureus [7] and against Escherichia coli [8] was over 100 µg/mL throughout. Besides, the MBIC50 in the data set with Staphylococcus aureus [5] was 19.1 µM; with Pseudomonas aeruginosa [6] it was 28.1 µM.

On to `Cn1cc(C(=O)c2nc(-c3cn(C)c4ccccc34)no2)c2cc(Br)ccc21`, for which the minimal inhibitory concentration (MIC) in the data set on Staphylococcus aureus [2], in the data set with Pseudomonas aeruginosa [3], against Staphylococcus aureus [7] and in the data set with Escherichia coli [8] was over 100 µg/mL each time. The MBIC50 with Escherichia coli [10] was 39.3 µM; in the data set on Staphylococcus aureus [5] it was 39.5 µM; in the data set on Pseudomonas aeruginosa [6], 39.3 µM. Also, in the data set with Staphylococcus aureus [4], the inhibition at 100 µg/mL was under 15%.

`Cn1cc(C(=O)c2nc(-c3cn(C)c4ccc(Br)cc34)no2)c2ccccc21`: the inhibition at 100 µg/mL in the data set on Escherichia coli [1], in the data set on Staphylococcus aureus [4] and with Staphylococcus aureus [11] was under 15% throughout. Also, the MIC in the data set with Staphylococcus aureus [2], against Pseudomonas aeruginosa [3], in the data set with Staphylococcus aureus [7] and against Escherichia coli [8] was over 100 µg/mL in each case. In addition, the MBIC50 with Pseudomonas aeruginosa [6] came out at 78.6 µM.

As for `Cn1cc(C(=O)c2nc(-c3cn(C)c4ccccc34)no2)c2ccccc21`, the MBIC50 in the data set on Staphylococcus aureus [12] worked out at 53.6 µM; with Escherichia coli [10], 72.1 µM; in the data set on Staphylococcus aureus [5] it was 14 µM; with Pseudomonas aeruginosa [6], 36.7 µM. Besides, the MIC against Staphylococcus aureus [2], in the data set on Pseudomonas aeruginosa [3], with Staphylococcus aureus [7] and in the data set on Escherichia coli [8] was over 100 µg/mL each time.

`COc1ccc2c(c1)c(C(=O)c1nc(-c3cn(C)c4ccc(Br)cc34)no1)cn2C`: the inhibition at 100 µg/mL with Escherichia coli [1], in the data set with Staphylococcus aureus [4] and in the data set with Pseudomonas aeruginosa [13] was under 15% throughout. Further, the MIC with Staphylococcus aureus [2], in the data set on Pseudomonas aeruginosa [3], in the data set with Staphylococcus aureus [7] and against Escherichia coli [8] was over 100 µg/mL each time. Besides, the MBIC50 in the data set with Staphylococcus aureus [5] was determined as 41 µM.

On to `COc1ccc2c(c1)c(C(=O)c1nc(-c3cn(C)c4ccc(F)cc34)no1)cn2C`, for which the inhibition at 100 µg/mL with Escherichia coli [1] and with Staphylococcus aureus [4] was under 15% each time. Moreover, the MIC against Staphylococcus aureus [2], against Pseudomonas aeruginosa [3], against Staphylococcus aureus [7] and with Escherichia coli [8] was over 100 µg/mL each time. Further, the MBIC50 in the data set on Staphylococcus aureus [5] worked out at 39.6 µM; in the data set with Pseudomonas aeruginosa [6], 11.6 µM.

Regarding `Cn1cc(C(=O)c2nc(-c3cn(C)c4ccc(Br)cc34)no2)c2cc(F)ccc21`, the inhibition at 100 µg/mL with Escherichia coli [1], in the data set on Staphylococcus aureus [4] and with Pseudomonas aeruginosa [13] was under 15% each time. In addition, the MIC with Staphylococcus aureus [2], with Pseudomonas aeruginosa [3], against Staphylococcus aureus [7] and with Escherichia coli [8] was over 100 µg/mL throughout. The same compound showed an MBIC50 in the data set with Staphylococcus aureus [5] of 9.7 µM. Moreover, the Activity entry with HS27 is given as “Non-Toxic”. Also, it took 2200 nM to reach half-maximal inhibition in [9] (IC50).

Consider `COc1ccc2c(c1)c(C(=O)c1nc(-c3cn(C)c4ccc(OC)cc34)no1)cn2C`, for which the inhibition at 100 µg/mL in the data set on Escherichia coli [1] and in the data set with Staphylococcus aureus [4] was under 15% each time. Also, the MIC against Staphylococcus aureus [2], in the data set on Pseudomonas aeruginosa [3], in the data set on Staphylococcus aureus [7] and with Escherichia coli [8] was over 100 µg/mL throughout. In addition, the MBIC50 was 2.2 µM in the data set on Staphylococcus aureus [5] and 74.7 µM in the data set on Pseudomonas aeruginosa [6]. In addition, the Activity entry in the data set on HS27 is “Non-Toxic”. Half-maximal inhibition in data set [9] (IC50) was put at 2200 nM.

Turning to `COc1ccc2c(c1)c(C(=O)c1nc(-c3cn(C)c4ccccc34)no1)cn2C`, the MIC in the data set with Staphylococcus aureus [2], against Pseudomonas aeruginosa [3], in the data set on Staphylococcus aureus [7] and in the data set with Escherichia coli [8] was over 100 µg/mL in each case. For the same compound, the MBIC50 worked out at 55.4 µM in the data set with Escherichia coli [10], 33.1 µM in the data set with Staphylococcus aureus [5] and 30 µM with Pseudomonas aeruginosa [6]. Also, the inhibition at 100 µg/mL in the data set with Staphylococcus aureus [4] is under 15%.

Turning to `Cn1cc(C(=O)c2nc(-c3cn(C)c4ccc(F)cc34)no2)c2cc(Br)ccc21`, the MIC in the data set on Staphylococcus aureus [2], in the data set on Pseudomonas aeruginosa [3], in the data set on Staphylococcus aureus [7] and against Escherichia coli [8] was over 100 µg/mL in each case. Moreover, the figures for the MBIC50 with Escherichia coli [10] and in the data set with Staphylococcus aureus [5] were 45.7 µM and 29.6 µM, respectively. Further, the inhibition at 100 µg/mL in the data set on Staphylococcus aureus [4] and in the data set with Pseudomonas aeruginosa [13] was under 15% in each case.

As for `COc1ccc2c(c1)c(-c1noc(C(=O)c3cn(C)c4ccccc34)n1)cn2C`, the inhibition at 100 µg/mL with Escherichia coli [1], in the data set on Staphylococcus aureus [4] and with Staphylococcus aureus [11] was under 15% throughout. The MIC in the data set with Staphylococcus aureus [2], in the data set with Pseudomonas aeruginosa [3], in the data set on Staphylococcus aureus [7] and against Escherichia coli [8] was over 100 µg/mL each time. Also, the MBIC50 in the data set on Pseudomonas aeruginosa [6] was found to be 47.4 µM.

For the compound `COc1ccc2c(c1)c(-c1noc(C(=O)c3cn(C)c4ccc(F)cc34)n1)cn2C`, the inhibition at 100 µg/mL in the data set with Escherichia coli [1] and in the data set on Staphylococcus aureus [4] was under 15% each time. The MIC with Staphylococcus aureus [2], against Pseudomonas aeruginosa [3], with Staphylococcus aureus [7] and in the data set on Escherichia coli [8] was over 100 µg/mL throughout. Further, the MBIC50 with Staphylococcus aureus [5] turned out to be 14.8 µM; with Pseudomonas aeruginosa [6], 52.1 µM.

In the case of `Cn1cc(C(=O)c2nc(-c3cn(C)c4ccc(F)cc34)no2)c2ccccc21`, the inhibition at 100 µg/mL in the data set with Escherichia coli [1] and in the data set with Staphylococcus aureus [4] was under 15% in each case. The MIC in the data set on Staphylococcus aureus [2], with Pseudomonas aeruginosa [3], against Staphylococcus aureus [7] and in the data set with Escherichia coli [8] was over 100 µg/mL in each case. The results for the MBIC50 in the data set on Staphylococcus aureus [5] and in the data set on Pseudomonas aeruginosa [6] were 30.4 µM and 24 µM, respectively.

Take `Cn1cc(C(=O)c2nc(-c3cn(C)c4ccc(Cl)cc34)no2)c2ccccc21`: the MIC against Staphylococcus aureus [2], with Pseudomonas aeruginosa [3], with Staphylococcus aureus [7] and against Escherichia coli [8] was over 100 µg/mL each time. The figures for the MBIC50 in the data set with Escherichia coli [10], with Staphylococcus aureus [5] and in the data set with Pseudomonas aeruginosa [6] were 59.6 µM, 47.6 µM and 53.5 µM, respectively. In the data set with Staphylococcus aureus [4], this compound yielded an inhibition at 100 µg/mL of under 15%.

`COc1ccc2c(c1)c(C(=O)c1nc(-c3cn(C)c4ccc(Cl)cc34)no1)cn2C`: the inhibition at 100 µg/mL in the data set with Escherichia coli [1], in the data set with Staphylococcus aureus [4], in the data set with Pseudomonas aeruginosa [13] and with Staphylococcus aureus [11] was under 15% throughout. In addition, the MIC in the data set with Staphylococcus aureus [2], with Pseudomonas aeruginosa [3], in the data set with Staphylococcus aureus [7] and against Escherichia coli [8] was over 100 µg/mL throughout.
